Assay results taken from ChEMBL document CHEMBL1128947, “Asiaticoside mimetics as wound healing agent” (1996).

Assays:
[1] = species: Rattus norvegicus; experiment: Tested for its effect on the wound healing in rats at 7th postoperative day by measuring tensile strength of skin strips from the wound segments; value relative to control(100); format: functional
[2] = species: Rattus norvegicus; experiment: Effect on the wound healing in rats at 7th postoperative day by measuring tensile strength of skin strips from the wound segments; format: functional

SMILES	Relative value [1]	Tensile strength [2] [g cm**-2]
COCCOCOC(=O)[C@]12CC[C@@H](C)[C@H](C)C1C1=CCC3[C@@]4(C)C[C@@H](O)[C@H](O)[C@@](C)(CO)C4CC[C@@]3(C)[C@]1(C)CC2 (stereo not given in full)	139	398
CCCCOC(C)OC(=O)[C@]12CC[C@@H](C)[C@H](C)C1C1=CCC3[C@@]4(C)C[C@@H](O)[C@H](O)[C@@](C)(CO)C4CC[C@@]3(C)[C@]1(C)CC2 (stereo not given in full)	126	362
C[C@@H]1CC[C@]2(C(=O)O)CC[C@]3(C)C(=CCC4[C@@]5(C)C[C@@H](O)[C@H](O)[C@@](C)(CO)C5CC[C@]43C)C2[C@H]1C (stereo not given in full)	146	418
C[C@@H]1CC[C@]2(C(=O)OC3CCCCO3)CC[C@]3(C)C(=CCC4[C@@]5(C)C[C@@H](O)[C@H](O)[C@@](C)(CO)C5CC[C@]43C)C2[C@H]1C (stereo not given in full)	168	481
COCOC(=O)[C@]12CC[C@@H](C)[C@H](C)C1C1=CCC3[C@@]4(C)C[C@@H](O)[C@H](O)[C@@](C)(CO)C4CC[C@@]3(C)[C@]1(C)CC2 (stereo not given in full)	141	404
CC(=O)OC[C@@]1(C)C2CC[C@]3(C)C(CC=C4C5[C@@H](C)[C@H](C)CC[C@]5(C(=O)OC5CCCCO5)CC[C@]43C)[C@@]2(C)C[C@@H](OC(C)=O)[C@@H]1OC(C)=O (stereo not given in full)	173	393
CCOCOC(=O)[C@]12CC[C@@H](C)[C@H](C)C1C1=CCC3[C@@]4(C)C[C@@H](O)[C@H](O)[C@@](C)(CO)C4CC[C@@]3(C)[C@]1(C)CC2 (stereo not given in full)	166	476
COCCOCOC(=O)[C@]12CC[C@@H](C)[C@H](C)C1C1=CCC3[C@@]4(C)C[C@@H](OC(C)=O)[C@H](OC(C)=O)[C@@](C)(COC(C)=O)C4CC[C@@]3(C)[C@]1(C)CC2 (stereo not given in full)	141	320
CCOCOC(=O)[C@]12CC[C@@H](C)[C@H](C)C1C1=CCC3[C@@]4(C)C[C@@H](OC(C)=O)[C@H](OC(C)=O)[C@@](C)(COC(C)=O)C4CC[C@@]3(C)[C@]1(C)CC2 (stereo not given in full)	215	487
CCOC(C)OC(=O)[C@]12CC[C@@H](C)[C@H](C)C1C1=CCC3[C@@]4(C)C[C@@H](O)[C@H](O)[C@@](C)(CO)C4CC[C@@]3(C)[C@]1(C)CC2 (stereo not given in full)	135	387
C[C@@H]1CC[C@]2(C(=O)OCOCc3ccccc3)CC[C@]3(C)C(=CCC4[C@@]5(C)C[C@@H](O)[C@H](O)[C@@](C)(CO)C5CC[C@]43C)C2[C@H]1C (stereo not given in full)	114	327
COCOC(=O)[C@]12CC[C@@H](C)[C@H](C)C1C1=CCC3[C@@]4(C)C[C@@H](OC(C)=O)[C@H](OC(C)=O)[C@@](C)(COC(C)=O)C4CC[C@@]3(C)[C@]1(C)CC2 (stereo not given in full)	145	330
CC(=O)OC[C@@]1(C)C2CC[C@]3(C)C(CC=C4C5[C@@H](C)[C@H](C)CC[C@]5(C(=O)OC5CCCO5)CC[C@]43C)[C@@]2(C)C[C@@H](OC(C)=O)[C@@H]1OC(C)=O (stereo not given in full)	145	331
CCCCCCCCOCOC(=O)[C@]12CC[C@@H](C)[C@H](C)C1C1=CCC3[C@@]4(C)C[C@@H](OC(C)=O)[C@H](OC(C)=O)[C@@](C)(COC(C)=O)C4CC[C@@]3(C)[C@]1(C)CC2 (stereo not given in full)	137	310
CCCCCCCCOCOC(=O)[C@]12CC[C@@H](C)[C@H](C)C1C1=CCC3[C@@]4(C)C[C@@H](O)[C@H](O)[C@@](C)(CO)C4CC[C@@]3(C)[C@]1(C)CC2 (stereo not given in full)	163	468
